Measured values from patent US10494366B2, “Pesticidally active amide heterocyclic derivatives with sulphur containing substituents” (Syngenta Participations AG, priority 2014, dated 2019).

Legend:
Type in all cases: in vivo
[1] = tested on: Euschistus heros (neotropical brown stink bug); assay: Example B6: Euschistus heros, sprayed soybean leaf; conditions: 120 h, application rate 200 ppm, N-2 nymphs, 5 days after infestation
Excerpt: Soybean leaf on agar in 24-well microtiter plates were sprayed with aqueous test solutions prepared from 10,000 ppm DMSO stock solutions. After drying the leaf were infested with N-2 nymphs.

[2] = tested on: Diabrotica balteata (corn root worm); assay: Example B4: Diabrotica balteata, sprayed maize sprouts; conditions: 96 h, application rate 200 ppm, L2 larvae, 4 days after infestation, read-out: effect in at least one of the two categories (mortality or growth inhibition)
Description: Maize sprouts, placed on an agar layer in 24-well microtiter plates were treated with aqueous test solutions prepared from 10,000 ppm DMSO stock solutions by spraying. After drying, the plates were infested with L2 larvae (6 to 10 per well). The samples were assessed for mortality and growth inhibition in comparison to untreated samples 4 days after infestation.

[3] = tested on: Spodoptera littoralis (Egyptian cotton leaf worm); assay: Example B1: Spodoptera littoralis, sprayed cotton leaf discs; conditions: foliar, 72 h, application rate 200 ppm, L1 larvae, 3 days after infestation, read-out: control in at least one of the three categories (mortality, anti-feedancy or growth inhibition)
[4] = tested on: Myzus persicae (green peach aphid); assay: Example B5: Myzus persicae, sprayed sunflower leaf discs; conditions: foliar, 144 h, application rate 200 ppm, aphid population of mixed ages, 6 days after infestation
Description: Sunflower leaf discs were placed on agar in a 24-well microtiter plate and sprayed with aqueous test solutions prepared from 10,000 ppm DMSO stock solutions. After drying, the leaf discs were infested with an aphid population of mixed ages. The samples were assessed for mortality 6 days after infestation.

[5] = tested on: Plutella xylostella (diamond back moth); assay: Example B3: Plutella xylostella, treated artificial diet; conditions: 120 h, application rate 200 ppm, L2 larvae, 5 days after infestation, read-out: effect in at least one of the two categories (mortality or growth inhibition)
Description: 24-well microtiter plates with artificial diet were treated with aqueous test solutions prepared from 10,000 ppm DMSO stock solutions by pipetting. After drying, the plates were infested with L2 larvae (10 to 15 per well). The samples were assessed for mortality and growth inhibition in comparison to untreated samples 5 days after infestation.

[6] = tested on: Spodoptera littoralis (Egyptian cotton leaf worm); assay: Example B2: Spodoptera littoralis, systemic test via lettuce roots in agar; conditions: 144 h, application rate 12.5 ppm, Spodoptera eggs, 6 days after infestation, read-out: control in at least one of the three categories (mortality, anti-feedancy or growth inhibition)
[7] = tested on: Bemisia tabaci (cotton white fly); assay: Example B10: Bemisia tabaci, sprayed cotton leaf discs; conditions: foliar, 144 h, application rate 200 ppm, adult white flies, 6 days after incubation
Description: Cotton leaf discs were placed on agar in 24-well microtiter plates and sprayed with aqueous test solutions prepared from 10,000 ppm DMSO stock solutions. After drying the leaf discs were infested with adult white flies. The samples were checked for mortality 6 days after incubation.

[8] = tested on: Myzus persicae (green peach aphid); assay: Example B7: Myzus persicae, systemic test with roots of pea seedlings in test solution; conditions: 144 h, test rate 24 ppm, aphid population of mixed ages, 6 days
Excerpt: Roots of pea seedlings infested with an aphid population of mixed ages were placed directly in the aqueous test solutions prepared from 10,000 DMSO stock solutions.

[9] = tested on: Tetranychus urticae (two-spotted spider mite); assay: Example B8: Tetranychus urticae, sprayed bean leaf discs; conditions: foliar, 192 h, application rate 200 ppm, mixed population (mobile stages), 8 days after infestation
Excerpt: Bean leaf discs on agar in 24-well microtiter plates were sprayed with aqueous test solutions prepared from 10,000 ppm DMSO stock solutions. After drying the leaf discs were infested with a mite population of mixed ages.

CCS(=O)(=O)c1cc(C2(C#N)CC2)cnc1C(=O)/N=c1\sc(C(F)(F)C(F)(F)F)nn1C [Compound P20, (N)-5-(1-cyanocyclopropyl)-3-ethylsulfonyl-N-[3-methyl-5-(1,1,2,2,2-pentafluoroethyl)-1,3,4-thiadiazol-2-ylidene]pyridine-2-carboxamide]
≥ 80%: mortality at 200 ppm [1] | percent effect (mortality or growth inhibition) at 200 ppm [2] | percent control (mortality, anti-feedant effect or growth inhibition) at 200 ppm [3] | mortality at 200 ppm [4] | percent effect (mortality or growth inhibition) at 200 ppm [5] | percent control (mortality, anti-feedant effect or growth inhibition) at 12.5 ppm [6] | mortality at 200 ppm [7]

CCS(=O)(=O)c1cc(C2CC2)cnc1C(=O)/N=c1\sc(C(F)(F)F)nn1C [Compound P63]
≥ 80%: mortality at 200 ppm [1] | percent effect (mortality or growth inhibition) at 200 ppm [2] | percent control (mortality, anti-feedant effect or growth inhibition) at 200 ppm [3] | mortality at 200 ppm [4] | percent effect (mortality or growth inhibition) at 200 ppm [5] | mortality at 24 ppm [8]

CCS(=O)(=O)c1cc(-c2ncc(Cl)s2)cnc1C(=O)/N=c1\sc(C(F)(F)F)nn1C [Compound P57]
≥ 80%: percent effect (mortality or growth inhibition) at 200 ppm [2] | percent control (mortality, anti-feedant effect or growth inhibition) at 200 ppm [3] | percent effect (mortality or growth inhibition) at 200 ppm [5] | mortality at 200 ppm [7]

CCS(=O)(=O)c1cc(-c2ncccn2)cnc1C(=O)/N=c1\sc(C(F)(F)F)nn1C [Compound P42]
≥ 80%: mortality at 200 ppm [1] | percent effect (mortality or growth inhibition) at 200 ppm [2] | percent control (mortality, anti-feedant effect or growth inhibition) at 200 ppm [3] | mortality at 200 ppm [4] | percent effect (mortality or growth inhibition) at 200 ppm [5] | percent control (mortality, anti-feedant effect or growth inhibition) at 12.5 ppm [6] | mortality at 24 ppm [8]

CCS(=O)(=O)c1cc(-c2cncs2)cnc1C(=O)/N=c1\sc(C(F)(F)F)nn1C [Compound P39]
≥ 80%: percent effect (mortality or growth inhibition) at 200 ppm [2] | percent control (mortality, anti-feedant effect or growth inhibition) at 200 ppm [3] | mortality at 200 ppm [7]

CCS(=O)(=O)c1cc(-c2cccc(OC(F)(F)F)c2)cnc1C(=O)/N=c1\sc(C(F)(F)F)nn1C [Compound P31]
≥ 80%: percent effect (mortality or growth inhibition) at 200 ppm [2] | percent control (mortality, anti-feedant effect or growth inhibition) at 200 ppm [3] | percent effect (mortality or growth inhibition) at 200 ppm [5] | percent control (mortality, anti-feedant effect or growth inhibition) at 12.5 ppm [6] | mortality at 200 ppm [9]

CCS(=O)(=O)c1cc(-c2ccc(C(F)(F)F)cc2)cnc1C(=O)/N=c1\sc(C(F)(F)C(F)(F)F)nn1C [Compound P8]
≥ 80%: mortality at 200 ppm [1] | percent effect (mortality or growth inhibition) at 200 ppm [2] | percent control (mortality, anti-feedant effect or growth inhibition) at 200 ppm [3] | mortality at 200 ppm [4] | percent effect (mortality or growth inhibition) at 200 ppm [5] | percent control (mortality, anti-feedant effect or growth inhibition) at 12.5 ppm [6] | mortality at 200 ppm [9]

CCS(=O)(=O)c1cc(-c2ncccn2)cnc1C(=O)/N=c1\ccc(SC(F)(F)F)cn1C [Compound P17, (N)-3-ethylsulfonyl-N-[1-methyl-5-(trifluoromethylsulfanyl)-2-pyridylidene]-5-pyrimidin-2-yl-pyridine-2-carboxamide]
≥ 80%: mortality at 200 ppm [1] | percent effect (mortality or growth inhibition) at 200 ppm [2] | percent control (mortality, anti-feedant effect or growth inhibition) at 200 ppm [3] | mortality at 200 ppm [4] | percent effect (mortality or growth inhibition) at 200 ppm [5] | percent control (mortality, anti-feedant effect or growth inhibition) at 12.5 ppm [6] | mortality at 24 ppm [8]

CCS(=O)(=O)c1cc(-c2ccc(Cl)c(Cl)n2)cnc1C(=O)/N=c1\sc(C(F)(F)F)nn1C [Compound P45]
≥ 80%: mortality at 200 ppm [1] | percent effect (mortality or growth inhibition) at 200 ppm [2] | percent control (mortality, anti-feedant effect or growth inhibition) at 200 ppm [3] | mortality at 200 ppm [4] | percent effect (mortality or growth inhibition) at 200 ppm [5] | percent control (mortality, anti-feedant effect or growth inhibition) at 12.5 ppm [6] | mortality at 200 ppm [9]
